What was measured:
Assay type in all cases: in vivo
[1] = tested on: adult cat fleas (Ctenocephalides felis); test: Ctenocephalides felis in-vitro contact test, adult cat flea; details: after 48 hours, read-out: efficacy (fleas dead or moribund); for pest or weed control at 1 µg/cm2, 100 g/ha: 1 μg/cm^2 (=100 g/ha); for pest or weed control at 5 µg/cm2, 500 g/ha: 5 μg/cm^2 (=500 g/ha)
In short: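 Compound in acetone coated onto glass tube inner walls (900 ppm giving 5 μg/cm^2); after drying, 5-10 adult fleas added and held at room temperature. After 48 h, fleas heat-stressed at 45-50° C for up to 5 min; immotile or uncoordinated fleas scored dead/moribund, giving % efficacy.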

[2] = tested on: adult brown dog ticks (Rhipicephalus sanguineus); test: Rhipicephalus sanguineus in-vitro contact test with adult brown dog ticks; details: 5 μg/cm^2 (=500 g/ha), after 48 hours, read-out: efficacy (ticks dead or moribund)
In short: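 Efficacy is % of adult ticks dead or moribund 48 h after confinement at room temperature in tubes wall-coated from acetone (5 μg/cm² at 900 ppm). Scoring by heat challenge at 45-50 °C up to 5 min; immotile or uncoordinated ticks failing to climb count as affected.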

[3] = tested on: green peach aphid (Myzus persicae); test: Myzus persicae oral test; details: 120 h
In short: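 Compound in acetone was diluted with water, and 50 μL was mixed with 150 μL IPL41 insect medium (33% + 15% sugar). A mixed aphid population fed on this through a parafilm seal. Mortality % was scored after 5 days, where 100% means all aphids were killed.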

[4] = tested on: Rhipicephalus microplus larvae (strain Parkhurst, resistant against synthetic pyrethroids); test: Rhipicephalus (Boophilus) microplus in-vitro contact test, larval cattle tick; details: 5 μg/cm^2 (=500 g/ha), after 48 hours, read-out: efficacy (larvae dead or moribund)
In short: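 Compound in acetone coated on glass tube inner walls; 900 ppm gives 5 μg/cm^2. Pyrethroid-resistant Parkhurst larvae (20-50 per tube) held at 27 °C, 85% relative humidity. Efficacy scored after 48 h from loss of negative geotaxis; 100% means all larvae dead or moribund.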

[5] = tested on: Aedes aegypti strain MONHEIM; test: Aedes aegypti test (AEDSAE surface treatment & contact assay); details: 24 hours after contact, read-out: efficacy (mortality); for mortality at 4 mg/m2: surface concentration 4 mg/m^2, 30 minutes exposure; for mortality at 20 mg/m2: surface concentration 20 mg/m^2, 30 minutes exposure
In short: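 Compound dissolved in acetone (2 mg/ml) with 2000 ppm rapeseed oil methyl ester, then dried onto a glazed tile. Adult A. aegypti (MONHEIM strain) exposed to the surface for 30 min. Percent mortality scored 24 h after contact.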

[6] = tested on: larvae of the banded cucumber beetle (Diabrotica balteata); test: Diabrotica balteata spray test; details: 168 h, 100 g/ha (=32 μg/well), after 7 days, wheat seeds, read-out: efficacy (seedlings grown like untreated, uninfected control)
In short: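 Germinated wheat seedlings sprayed with compound in acetone/DMF with emulsifier-containing water, then infested with 10-20 Diabrotica balteata larvae per unit. Efficacy scored after 7 days as seedling growth relative to untreated, uninfested control (100%) versus no growth (0%).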

[7] = tested on: adult unfed cat fleas (Ctenocephalides felis); test: Ctenocephalides felis oral test; details: 48 h
In short: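 About 20 adult unfed fleas fed through parafilm on cattle blood containing compound (DMSO concentrate diluted in blood); blood held at 37° C., fleas at room temperature. Mortality in % scored after 2 days (100% = all killed).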

Row | SMILES | pest or weed control at 1 µg/cm2, 100 g/ha [1] [%] | pest or weed control at 5 µg/cm2, 500 g/ha [2] [%] | mortality at 4 ppm [3] [%] | pest or weed control at 5 µg/cm2 [4] [%] | mortality at 4 mg/m2 [5] [%] | mortality at 20 mg/m2 [5] [%] | pest or weed control at 32 µg/disc, 100 g/ha [6] [%] | mortality at 100 ppm [7] [%] | pest or weed control at 5 µg/cm2, 500 g/ha [1] [%]
1 | CC(NC(=O)c1cc(C(F)(F)F)cc(C(F)(F)F)c1)c1nc(Cl)nn1-c1ncccn1 (stereo not drawn) [Example I-002] | 100 | 80 | 100 | 100 | 80 to 100 | 80 to 100 | 100 | 100 | 
2 | CC(NC(=O)c1cc(C(F)(F)F)cc(C(F)(F)F)c1)c1nc(Br)nn1-c1ncccn1 (stereo not drawn) [Example I-010] |  | 100 | 100 | 100 |  | 80 to 100 | 80 | 100 | 80
3 | CC(NC(=O)c1cc(C(F)(F)F)cc(C(F)(F)F)c1)c1nc(I)nn1-c1ncccn1 (stereo not drawn) [Example I-021] | 100 | 80 | 100 | 100 | 80 to 100 | 80 to 100 | 100 | 100 | 100

From patent publication US20220386611A1, “NOVEL HETEROARYL-TRIAZOLE COMPOUNDS AS PESTICIDES” (Bayer Aktiengesellschaft, priority 2019, published 2022)
